Measurements published in ChEMBL document CHEMBL1128694, “Specific inhibition of poly(ADP-ribose) glycohydrolase by adenosine diphosphate (hydroxymethyl)pyrrolidinediol” (J Med Chem, 1995).

Legend:
Details in all cases: Meleagris gallopavo
[1] = target: T1, ADP-ribosyltransferase (Homo sapiens) (UniProt P52961); experiment: Inhibition of ADP-ribosyltransferase 1 that catalyze ADP-ribosyltransferase was measured at 0 uM concentration
T1 sequence (whole entry): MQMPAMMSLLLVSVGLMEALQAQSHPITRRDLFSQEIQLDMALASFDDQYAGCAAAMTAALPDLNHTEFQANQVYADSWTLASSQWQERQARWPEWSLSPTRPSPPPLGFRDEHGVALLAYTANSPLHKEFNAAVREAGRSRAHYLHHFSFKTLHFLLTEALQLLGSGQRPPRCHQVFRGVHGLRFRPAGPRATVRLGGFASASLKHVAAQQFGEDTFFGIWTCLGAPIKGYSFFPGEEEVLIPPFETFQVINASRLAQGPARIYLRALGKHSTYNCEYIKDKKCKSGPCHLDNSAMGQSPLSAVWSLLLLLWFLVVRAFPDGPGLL

[2] = target: T1, ADP-ribosyltransferase (Homo sapiens); experiment: Inhibition of ADP-ribosyltransferase 1 that catalyze ADP-ribosyltransferase was measured at 1000 uM concentration
[3] = target: T1, ADP-ribosyltransferase (Homo sapiens); experiment: Inhibition of ADP-ribosyltransferase 1 that catalyze ADP-ribosyltransferase was measured at 100 uM concentration

Activity [1]: 0.06 units/assay
Activity [2]: 0.05 units/assay
Activity [3]: 0.07 units/assay
Compound: Nc1ncnc2c1ncn2[C@@H]1O[C@H](COP(=O)(O)OP(=O)(O)OC[C@H]2NC[C@H](O)[C@@H]2O)[C@@H](O)[C@H]1O
